# Results as given in patent publication US11479601B2, “Antibodies specific to Sonic Hedgehog and method of use thereof” (The Regents of the University of California, priority 2016, dated 2022).
# Entries after “also recorded” stand apart in the source; their conditions may differ.
# B1: Ab 1C11-2D9 (antibody, mouse IgG1, kappa, V domains shown)
# VH: EVKLVESGGGLVKPGGSLKLSCAASGFTFSSYTMSWVRQTPAKRLEWVATISSGGGNTYYPDSVKGRFTISRDNARNTLYLQMSSLRSEDTAMYYCARDYRSLFAYWGQGTLVTVSA
# VL: QIVLTQSPAIMSASPGEKVTITCSASSSVSYMHWFQQKPGTSPKLWIYSTSNLASGVPARFSGSGSGTSYSLTISRMEAEDAATYYCQQRSSYPFTFGSGTKLEIKR
# notes: also called clone 2D9; Ab11-2D9
# B2: Ab 1C11-2G4 (antibody, IgG1, V domains shown)
# VH: B1 VH
# VL: QIVLTQSPAIMSASPGEKVTITCSASSSVSYMHWFQQKPGTSPKLWIYSTSNLASGVPARFSGSGSGTSYSLTISRMEAEDAATYYCQQRSSYPFTFGSGTKLEIK
# notes: also called clone 2G4; Ab 2G4
# Key:
# [1] = target: full-length human Sonic Hedgehog (Shh) expressed in cells (endogenous, or transfected with pCMV-Shh) (human) (UniProt Q15465); experiment: FACS of non-permeabilised A549 cells labeled with the antibody; Total Cells Sorted 19 million, % Shh+ Cells 0.06%
# [2] = target: full-length human Sonic Hedgehog (Shh) expressed in cells (endogenous, or transfected with pCMV-Shh) (human) (UniProt Q15465); experiment: flow cytometry, untransfected cells (No transfection)
# [3] = target: full-length human Sonic Hedgehog (Shh) expressed in cells (endogenous, or transfected with pCMV-Shh) (human) (UniProt Q15465); experiment: FACS of non-permeabilised A549 cells
# [4] = target: full-length human Sonic Hedgehog (Shh) expressed in cells (endogenous, or transfected with pCMV-Shh) (human) (UniProt Q15465); experiment: flow cytometry, A549 + vector control (endogenous Shh)
# [5] = target: full-length human Sonic Hedgehog (Shh) expressed in cells (endogenous, or transfected with pCMV-Shh) (human) (UniProt Q15465); experiment: flow cytometry, A549 cells transfected with pCMV-Shh
# [6] = target: full-length human Sonic Hedgehog (Shh) expressed in cells (endogenous, or transfected with pCMV-Shh) (human) (UniProt Q15465); experiment: flow cytometry of ground up permeabilised A549 xenograft tumour cells from control IgG-treated mice
# [7] = target: full-length human Sonic Hedgehog (Shh) expressed in cells (endogenous, or transfected with pCMV-Shh) (human) (UniProt Q15465); experiment: flow cytometry, cells transfected with full-length Shh
# [8] = system: advanced SCLC; settings: sonidegib in addition to cisplatin/etoposide; cited from earlier work
# [9] = system: A549 cells; experiment: Viability of A549 cells treated with Shh antibodies ± GLI inhibitor 249C; assay type: cell-based, human; settings: Homo sapiens, A549
# Experimental: The effect of the C-terminal Shh antibodies from clones 2G4 and 2D9 on the viability of A549 cells was determined. A549 cells were exposed to increasing concentrations of the C-terminal Shh antibodies (2G4, 2D9), or antibodies against the N-terminal portion of Shh protein (6D3, 2E1), and the effective dose (ED50) was determined (assay 1: FIG. 16A; assay 2: FIG. 16B). […] Possibly due to the fact that very few cells express full-length Shh on the cell surface, the cytotoxic effect of the C-terminal Shh antibodies was not as potent as the cytotoxic effect of the N-terminal antibodies.
# Next, the cytotoxicity of the C-terminal Shh antibodies was tested when the antibodies were used in conjunction with a small-molecule inhibitor of GLI zinc-finger transcription factor signaling, 249C (4-(5-chlorofuran-2-yl)-1,3-bis(2,4-difluorophenyl)-5-methyl-N-((4-methylmorpholin-2-yl)methyl)-4,5-dihydro-1H-pyrazole-5-carboxamide; Compound 135 above). A549 cells were exposed to varying concentrations of the C-terminal antibodies (2G4, 2D9) or the N-terminal antibodies (6D3, 2E1), in the presence or absence of a very low dose (40 nM) of 249C. (The IC50 of 249C in A549 cells is ˜70 nM.)
# [10] = system: A549 Shh− cells; experiment: Migration/wound healing assay on A549 Shh− cells; assay type: cell-based, human; settings: Shh recombinant protein 1200 ng/mL, day 3
# Experimental: Migration assay was performed by wound healing assay. Monolayers of cells were: cultured, scratched, treated with media containing proteins and/or drugs at different concentrations: Shh protein, DMSO, and GDC0449, and recorded 0 and 24, 72 and 96 hours after treatment.
# Wound healing assays were performed to study cell migration. Monolayers of cells were cultured, scratched, treated with media containing proteins and/or drugs at different concentrations: Shh protein, DMSO, and GDC0449-recorded at 0, 24, 72 and 96 hours after treatment.
# [11] = system: Shh+ cells (A549); experiment: Shh rate by flow cytometry in drug-treated A549 cells; assay type: cell-based, human
# Experimental: FACS (1:40). The secondary antibody was a donkey anti-mouse FITC-linked antibody (ab97029, 1:100, Abcam). For cell analysis after treatment assays (chemotherapy or GDC0449), a dead cell marker (SytoxRed, Invitrogen) was also used. For human fresh samples, an anti-CD45 APC-linked antibody (ab28106, 1:100, Abcam), and a dead cells marker (SytoxRed, Invitrogen) were added. For staining of stable transfected cell lines, mouse anti-HA antibody (Abcam, 1:100) and rabbit anti-FLAG antibody (Cell Signaling; 1:400) were used. Corresponding secondary antibodies were donkey anti-mouse AlexaFluor647 (Invitrogen, 1:1000) and donkey anti-rabbit AlexFluor594 (Invitrogen, 1:1000) antibodies. Flow cytometry analyses were performed on AccuriC6 flow cytometer (BD Biosciences), and FACS on FACSAria II (BD Biosciences). Flow analyses were based at least on 200,000 cells, and each test was made at least in triplicate. For all experiments, a negative control with cells processed without primary antibody was used. Sorted cells (Shh+ and Shh− cells) were collected on fresh media, and seeded on culture plates or freezed at −80° C. according to further analyses. Flow cytometry analysis was performed without membrane permeabilization prior to labeling the cells, unless otherwise indicated (e.g., FIG. 1D). Cisplatin was purchased from Sigma, and freshly reconstituted in PBS (2 g/1). Docetaxel was purchased from Tocris Bioscience, reconstituted in DMSO (5 g/1 stock dilution at −20° C.; further dilution in fresh culture medium) for in vitro assays, or reconstituted in ethanol/polysorbate 80 (1:1; 5 g/1 stock dilution at −20° C.; further dilution in PBS) for in vivo assays. GDC0449 was purchased from Selleck Chemicals, and reconstituted in DMSO (30 mM stock dilution). Shh human recombinant protein was obtained from EBioscience, and used at 1200 ng/ml. The mouse Shh-C-terminal antibody (mentioned above) was used for flow cytometry and FACS (1:40). The secondary antibody was a donkey anti-mouse FITC-linked antibody (ab97029, 1:100, Abcam). For cell analysis after treatment assays (chemotherapy or GDC0449), a marker for dead cells (SytoxRed®, Invitrogen) was also used. For fresh human samples, an anti-CD45 APC-linked antibody (ab28106, 1:100, Abcam) was added, and a marker for dead cells (SytoxRed®, Invitrogen). For staining of stable transfected cell lines, a mouse anti-HA antibody (Abcam, 1:100) and a rabbit anti-FLAG antibody (Cell Signaling; 1:400) were used. Corresponding secondary antibodies were donkey anti-mouse AlexaFluor647 (Invitrogen, 1:1 000) and donkey anti-rabbit AlexFluor594 (Invitrogen, 1:1 000). Flow cytometry analyses were performed on an AccuriC6 flow cytometer (BD Biosciences), and FACS on a FACSAria II (BD Biosciences). […]
# [12] = system: Shh gene expression; experiment: Shh gene expression by qPCR in drug-treated A549 cells; assay type: cell-based, human
# Experimental: RNA from unsorted cells was extracted with Qiagen Rneasy® Minikit (Quiagen), according to manufacturer instructions. RNA from sorted cells was extracted with Arcturus PicoPure RNA Isolation Kit (Life technologies). cDNA was then synthesized with iScript cDNA Synthesis Kit (Bio-Rad), according to manufacturer instructions. Commercial primers for Shh gene were obtained from Origen. Quantitative PCR was performed on Applied Biosystems' 7900HT Fast Real-Time PCR System, with triplicate for each gene analysis. Gene expression analysis was calculated with deltaCT method, with normalization with endogenous control (18s gene) (normalized gene expression level=2^−deltaCT(test gene)−deltaCT(18s)). For ddPCR, droplets creation, PCR and results analysis were performed according to manufacturer instructions (BioRad, QX100 ddPCR System, Quantasoft software). Results of ddPCR were expressed as FAM concentrations (copies/μl). RNA from unsorted cells was extracted with Qiagen's RNeasy Mini kit (Qiagen) according to the manufacturer's instructions. […] Quantitative RT-PCR (qRT-PCR) was performed on an Applied Biosystems 7900HT Fast Real-Time PCR System, in triplicate for each sample. Gene expression analysis was calculated with the delta-deltaCT method normalized to an endogenous control (18S gene). […] Results of ddPCR were expressed as FAM concentrations (copies/0).
# [13] = system: A549 cells; experiment: Proliferation (MTS) and migration/wound healing assay on A549 cells; assay type: cell-based, human; settings: GDC0449
# Experimental: Proliferation assay was performed by MTS assay (CellTiter 96, Promega), according to manufacturer instructions. […] Migration assay was performed by wound healing assay. Monolayers of cells were: cultured, scratched, treated with media containing proteins and/or drugs at different concentrations: Shh protein, DMSO, and GDC0449, and recorded 0 and 24, 72 and 96 hours after treatment. MTS proliferation assays were performed (CellTiterGlo 96, Promega) according to the manufacturer's instructions. […] Wound healing assays were performed to study cell migration. Monolayers of cells were cultured, scratched, treated with media containing proteins and/or drugs at different concentrations: Shh protein, DMSO, and GDC0449-recorded at 0, 24, 72 and 96 hours after treatment.
# [14] = system: Shh+ cells in A549 xenografts; experiment: Shh rate in A549 xenografts of drug-treated nude mice; assay type: in vivo
# Experimental: For xenograft formation, female nude mice, 5 to 10 weeks old, were injected subcutaneously (SC) with 10 million A549 cells in the dorsal area in a volume of […]. For SC inoculation of sorted cells, 1,500 cells of A549 Shh+ or Shh− cells were injected in a volume of […]. For intra-veinous injection of sorted cells, 1,000 cells of A549 Shh+ or Shh− cells were injected in the tail vein. For the in vivo treatment assay, after xenograft formation, animals were injected intravenously with cisplatin (10 mg/kg weekly), docetaxel (10 mg/kg twice a week) or vehicle, and intraperitoneally with GDC0449 (20 mg/kg daily) or vehicle. Each group consisted in 4-5 mice. Tumor size was determined twice a week, and tumor volumes were calculated using width (x) and length (y) (x^2y/2, where x<y). Tumors were collected after mice euthanasia, and cell dissociation was performed as for fresh human samples (cf supra). Flow cytometry and FACS were done as described supra. All animals were cared in accord with University of California San Francisco (UCSF) guidelines.
# For xenograft formation, 5-10 week-old female nude mice, were injected subcutaneously (SC) with 10 million A549 cells in the dorsal area in a volume of 100 μl. […] Tumor size was determined twice a week, and tumor volumes were calculated using width (x) and length (y) (x^2y/2, where x<y). […]
# [15] = system: A549 cells; experiment: Tumor formation after inoculation of GDC0449 pre-treated A549 cells; assay type: in vivo, nude mice; settings: A549 cells pre-treated with 40 μM GDC0449, 1 million cells subcutaneous, versus DMSO pre-treated
# Source text: Then, nude mice were inoculated (sub-cutaneous) with 1 million treated cells (still adherent to the culture flask after treatment with GDC0449). […] Then, nude mice were inoculated subcutaneously with 1 million treated cells (still adherent to the culture flask after treatment with GDC0449).
# [16] = system: most chemo-resistant NSCLC cell lines; settings: previous study; cited from earlier work
# [17] = system: advanced-stage SCLC; settings: cisplatin/etoposide with or without vismodegib, first line; cited from earlier work
# [18] = target: T1, recombinant full-length Shh protein (human, UniProt Q15465 24-462, limits assumed); experiment: BLI (Octet), response (nm) against Shh conc (nM), four points between about 28 and 165 nM, fitted line, R2 = 0.97
# T1 construct: Printed only as 'full-length recombinant Shh protein'; also called full-length recombinant Shh protein
# [19] = target: T1, recombinant full-length Shh protein; experiment: BLI (Octet), response (nm) against Shh conc (nM), four points between about 28 and 165 nM, fitted line, R2 = 0.98
molecule,measurement,setting,value
"commercial C-terminal Shh antibody (Abcam ab53281, rabbit)",# Shh+ Cells,[1],3810 cells
same,% of cells labeled,[2],0.11%
same,% Shh+ cells sorted,[3],0.06%
same,% of cells labeled,[4],1%
same,% of cells labeled,[5],5.1%
same,% Shh-labeled cells,[6],80%
same,% of cells labeled,[7],2.45%
"Cc1c(C(=O)Nc2ccc(N3C[C@@H](C)O[C@@H](C)C3)nc2)cccc1-c1ccc(OC(F)(F)F)cc1 [sonidegib, N-[6-[(2S,6R)-2,6-Dimethylmorpholin-4-yl]pyridin-3-yl]-2-methyl-3-[4-(trifluoromethoxy)phenyl]benzamide]",response rate,[8],79%
"CN1CCOC(CNC(=O)C2(C)C(c3ccc(Cl)o3)C(c3ccc(F)cc3F)=NN2c2ccc(F)cc2F)C1 (stereo not drawn) [Ab 249C, 4-(5-chlorofuran-2-yl)-1,3-bis(2,4-difluorophenyl)-5-methyl-N-((4-methylmorpholin-2-yl)methyl)-4,5-dihydro-1H-pyrazole-5-carboxamide]",IC50,[9],~70 nM
"human recombinant N-terminal Shh peptide: Shh human recombinant protein from eBioscience, used at 1200 ng/ml",augmentation in the migration rate,[10],15%
N.N.[Cl][Pt][Cl] [cisplatin],"Shh rate, Shh+ cells of live cells","[11]; A549 cells, cisplatin 1 mM, 72 h",5%
same,Shh rate with escalating doses,"[11]; NSCLC cells, escalating doses of cisplatin",absolute augmentation
same,Shh gene expression (qPCR),[12]; after cisplatin treatment,elevation
CS(=O)(=O)c1ccc(C(=O)Nc2ccc(Cl)c(-c3ccccn3)c2)c(Cl)c1 [GDC0449],cell proliferation and migration,[13],inhibition of cell proliferation and migration
same,"Shh rate in A549 xenografts, sequential assay","[14]; cisplatin 10 mg/kg IV weekly, then GDC0449 20 mg/kg IP daily",significant reduction
same,"Shh rate in A549 xenografts, combination treatment compared to chemotherapy alone",[14]; docetaxel 10 mg/kg twice a week plus GDC0449 20 mg/kg IP daily,significant reduction
same,Shh rate post-chemotherapy combined with GDC0449 compared to chemotherapy alone,"[11]; A549 cells, cisplatin or docetaxel plus GDC0449 40 μM",significant decrease; also recorded: decreased significantly
same,Shh+ cells in pre-inoculated A549 cells,"[11]; GDC0449 40 μM, day 3",0%
same,tumor formation from pre-treated cells,[15],completely inhibited
same,Shh gene expression (qPCR),"[12]; post-GDC0449 treatment, 20 μM and 40 μM",dramatic decrease
same,effect with cisplatin in vitro,[16],synergistic effect
same,"response rate, PFS or OS",[17],No effect
B1,Kd,[18],4.6 nM
B2,Kd,[19],4 nM
